Assay results taken from patent US4711898A, “4-quinolone derivatives having anti-inflammatory, anti-allergic, antitussive, expectorant and antithrombotic activity” (Nippon Shinyaku Co., Ltd., priority 1982, dated 1987).
Counter-ions that a name gives are not always drawn. Like-named read-outs stand apart in the source and are kept apart here.

How the values were obtained:
carrageenin edema = experiment: Carrageenin edema at the hind foot of rats; format: in vivo, SD-strain rats; settings: 200 mg/kg per os, one hour before carrageenin, foot volume three hours after; for inhibition in vivo at 200 mg/kg: Rattus norvegicus, po, 3 h, read-out: % Inhibition (carrageenin edema)
Experimental: The anti-inflammatory action of the compounds of the present invention were evaluated by measuring the inhibition against carrageenin edema as set forth below. Carrageenin edema at the hind foot of rats: Experimental method. SD-strain rats of body weights of around 150 grams were used, each group consisting of five rats. A solution (0.1 ml) of 0.5% carrageenin dissolved in physiological saline water was subcutaneously injected into the right hind foot pat of the rats and, one hour prior to the injection of carrageenin, 200 mg/kg of test compound was given per os. Foot volumes of the rats before the carrageenin treatment and those of three hours after the treatment were measured and the differences were compared with those of the control group to adopt as a target of the effect of the compounds.

[1] = test system: passive cutaneous anaphylaxis (DNP-As homocytotropic antiserum); experiment: passive cutaneous anaphylatic assay (PCA) in rats; format: in vivo, Wistar strain rats; settings: 10 mg/kg orally, one hour before antigen; for inhibition in vivo at 10 mg/kg: Rattus norvegicus, po, 1 h, read-out: PCA Inhibition Ratio %
Procedure, shortened: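 Wistar rats were sensitised intradermally with diluted DNP-As homocytotropic antiserum and challenged 72 h later with i.v. DNP-As plus Evans Blue. Compounds were given orally at 10 mg/kg 1 h before antigen. Dye extracted from skin sites 30 min post-challenge gave inhibition relative to controls.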

male mice = experiment: Acute toxicity after oral administration; format: in vivo
Experimental: Acute toxicity was determined two weeks after oral administration of 4000 mg/kg to male mice. Four mice (denominator) are used in each group and the dead numbers are given as the numerator. The compounds of the present invention show little, if any, toxicity.

[2] = test system: SRS-A (slow reacting substance of anaphylaxis) contraction of ileum; experiment: Anti-SRS-A action using ileus of guinea pigs; format: cell-based, Hartley strain male guinea pigs; settings: 5 min, guinea pig ileum, SRS-A 20 units, compound five minutes before; for inhibition at 1 µM: Cavia porcellus, 1/1000 mM, read-out: 1/1000 mM SRS-A Inhibition Ratio %
Procedure, shortened: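 Ileum from male Hartley guinea pigs (300 to 350 g) in oxygenated Tyrode with 10^-7 g/ml atropine and 10^-6 g/ml pyrilamine, contracted by 20 units SRS-A. Compound added five minutes before; isotonic contraction height compared with SRS-A alone.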

[3] = test system: platelet aggregation induced by ADP, collagen and AA; experiment: Action against Platelet Coagulation (aggregation in platelet rich plasma of rabbits); format: cell-based, Male rabbits; settings: Oryctolagus cuniculus; for inhibition at 100 µM: final concentration 10^-4 M; for inhibition at 10 µM: final concentration 10^-5 M; for inhibition at 1 µM: final concentration 10^-6 M
Experimental: Action against Platelet Coagulation was determined as follows: Male rabbits with body weights of 3 kg or around were used. Blood was taken from their carotid artery and, immediately thereafter, 1/10 volume (to the blood) of 3.8% aqueous solution of sodium citrate was added thereto. The mixture was centrifuged at room temperature (400 g; 10 minutes) to give platelet rich plasma (abbreviated as PRP: containing 5×10^5 platelets per mm^3). The PRP was then placed into a cell for platelet coagulation meter (Niko Bioscience), stirred, 5 microliters of test compound solution in dimethyl sulfoxide was added and, one minute thereafter, 5 micromolar of ADP, 10 micrograms/ml of collagen or 25 microliters of arachidoic acid (AA) was added thereto to observe changes of extinctions. From the maximum coagulation value at the time of administration the of test compound against that at the time of the solvent addition, inhibition was calculated and the effect of the compounds against the platelet coagulation was determined.

[4] = cited from earlier work
[5] = AA 150 μM, read-out: Inhibition (%) of platelet aggregation, AA (150 μM)
[6] = ADP 5 μM, read-out: Inhibition (%) of platelet aggregation, ADP (5 μM)
[7] = collagen 10 μg/ml, read-out: Inhibition (%) of platelet aggregation, Collagen (10 μg/ml)
[8] = 4000 mg/kg oral, male mice, two weeks, dead/group of four

| Compound | inhibition in vivo at 200 mg/kg (carrageenin edema) [%] | inhibition in vivo at 10 mg/kg [1] [%] | Lethal Ratio (male mice; mouse, in vivo) | inhibition at 1 µM [2] [%] | other results |
| --- | --- | --- | --- | --- | --- |
| CCCCCCn1c(-c2ccccc2)cc(=O)c2cc(C(=O)O)ccc21 [Example 20] | 10.6 | 26.4 | 1/4 | 83.9 |  |
| COC(=O)c1ccc2[nH]c(-c3ccccc3I)cc(=O)c2c1 [Example 28] | 15.9 | 19.6 | 0/4 | 55.6 |  |
| Cc1ccccc1-c1cc(=O)c2cc(C(=O)O)ccc2[nH]1 [Example 42] | 11.8 | 43.2 | 0/4 | 17.4 |  |
| COC(=O)c1ccc2[nH]c(-c3ccccc3OC)cc(=O)c2c1 [Example 56] |  | 22.3 | 1/4 | 25.2 |  |
| CCOC(=O)c1cccc2c1N=C(c1ccccc1Cl)CC2=O [Example 83, ethyl 2-(2-chlorophenyl)-4-quinolone-8-carboxylate] | 22.5 | 28.5 |  | 75.9 | inhibition at 100 µM [3, 5]: 100%; inhibition at 10 µM [3, 5]: 3.3%; inhibition at 100 µM [3, 6]: 18.5%; inhibition at 100 µM [3, 7]: 100%; inhibition at 10 µM [3, 7]: 14%; Lethal Ratio (male mice; [8]): 0/4 |
| O=C(O)c1cccc2c(=O)cc(-c3ccccc3Cl)[nH]c12 [Example 84] |  |  |  |  | Lethal Ratio (male mice; [8]): 0/4 |
| O=C(O)c1cccc2c(=O)cc(-c3ccccc3Cl)[nH]c12 [Example 85] |  | 17 | 0/4 | 27.9 |  |
| CCOC(=O)c1cccc2c(=O)cc(-c3ccc(Cl)cc3Cl)[nH]c12 [Example 89] |  | 26.2 | 0/4 | 55.6 |  |
| CCOC(=O)c1cccc2c(=O)cc(-c3ccc(C)cc3C)[nH]c12 [Example 94] |  | 25.7 | 1/4 | 78.6 |  |
| CCOC(=O)c1cccc2c(O)cc(-c3ccccc3Cl)nc12 [Example 100, Ethyl 2-(2-chlorophenyl)-4-hydroxyquinoline-8-carboxylate hydrochloride] |  | 29.7 |  | 70.5 | Lethal Ratio (male mice; [8]): 0/4 |
| C=CCOC(=O)c1cccc2c1N=C(c1ccccc1Cl)CC2=O [Example 110, Allyl 2-(2-chlorophenyl)-4-quinolone-8-carboxylate] | 19.2 | 17.7 |  | 18.9 |  |
| CC(C)COC(=O)c1cccc2c(=O)cc(-c3ccccc3Cl)[nH]c12 [Example 112] | 10 | 24.3 |  | 25 |  |
| CC(=O)OCCOC(=O)c1cccc2c(=O)cc(-c3ccccc3Cl)[nH]c12 [Example 118] | 27.9 | 41.5 |  | 64.2 |  |
| CCOCCOC(=O)c1cccc2c(=O)cc(-c3ccccc3Cl)[nH]c12 [Example 120] | 29.4 | 10.7 |  | 20.3 |  |
| CC(O)COC(=O)c1cccc2c(=O)cc(-c3ccccc3Cl)[nH]c12 (stereo not drawn) [Example 125] | 17.2 | 10.4 |  | 15.6 |  |
| CCOC(=O)CC(=O)COC(=O)c1cccc2c(=O)cc(-c3ccccc3Cl)[nH]c12 [Example 130] | 18.3 | 20.3 |  | 12.7 |  |
| O=C(OCCO)c1cccc2c(=O)cc(-c3ccccc3F)[nH]c12 [Example 131] | 29.9 | 28.5 |  | 14 |  |
| O=C(OCCO)c1cccc2c(=O)cc(-c3ccc(Cl)cc3)[nH]c12 [Example 133] | 10 | 17 |  | 21.3 |  |
| Cc1ccc(-c2cc(=O)c3cccc(C(=O)OCCO)c3[nH]2)c(C)c1 [Example 136] | 26.9 | 19.4 |  | 15.4 |  |
| COc1ccc2c(c1)c(CC(=O)O)c(C)n2C(=O)c1ccc(Cl)cc1 [Indomethacin] |  |  |  |  | inhibition at 100 µM [3, 5]: 100%; inhibition at 10 µM [3, 5]: 100%; inhibition at 1 µM [3, 5]: 1.6%; inhibition at 100 µM [3, 6]: 2.6%; inhibition at 100 µM [3, 7]: 100%; inhibition at 10 µM [3, 7]: 100%; inhibition at 1 µM [3, 7]: 19.6% |
| O=C(O)c1cc(=O)c2c(OCC(O)COc3cccc4oc(C(=O)O)cc(=O)c34)cccc2o1 [Sodium chromoglicate] |  |  |  |  | effect on oral administration [4]: does not show any effect on oral administration |
| Ethyl 2-phenyl-4-quinolone-8-carboxylate [Example 80] |  |  |  |  | % Inhibition (carrageenin edema) (carrageenin edema): 14.7%; PCA Inhibition Ratio % [1]: 20.9%; 1/1000 mM SRS-A Inhibition Ratio % [2]: 52.4% |
